The test system of assay [1] is Vibrio ichthyoenteri. Description: Antimicrobial activity against Vibrio ichthyoenteri assessed as bacterial growth inhibition. In kind it is functional.
Assay [2] deals with Vibrio vulnificus. As to the kind of experiment: Antimicrobial activity against Vibrio vulnificus assessed as bacterial growth inhibition. It is filed as functional.
Assay [3] concerns Vibrio rotiferianus. As to the kind of experiment: Antimicrobial activity against Vibrio rotiferianus assessed as bacterial growth inhibition. It is filed as functional.
Assay [4] has as its system Vibrio campbellii. Description: Antimicrobial activity against Vibrio campbellii assessed as bacterial growth inhibition. It is filed as functional.
For assay [5], the system named is Vibrio natriegens. Description: Antimicrobial activity against Vibrio natriegens assessed as bacterial growth inhibition. In kind it is functional.
Assay [6] has as its system Vibrio anguillarum. As to the kind of experiment: Antimicrobial activity against Vibrio anguillarum assessed as bacterial growth inhibition. It is filed as functional.
The test system of assay [7] is Vibrio harveyi. Description: Antimicrobial activity against Vibrio harveyi assessed as bacterial growth inhibition. It is filed as functional.
The test system of assay [8] is Vibrio parahaemolyticus. Description: Antimicrobial activity against Vibrio parahaemolyticus ATCC 17802 assessed as bacterial growth inhibition by microplate reader assay. In kind it is functional.
For assay [9], the system named is Vibrio alginolyticus. Description: Antimicrobial activity against Vibrio alginolyticus assessed as bacterial growth inhibition. In kind it is functional.
For assay [10], the system named is Vibrio anguillarum. As to the kind of experiment: Antimicrobial activity against Vibrio anguillarum QDIO-6 assessed as bacterial growth inhibition by microtiter plate assay. It is filed as functional.
For assay [11], the system named is Vibrio parahaemolyticus. As to the kind of experiment: Antimicrobial activity against Vibrio parahaemolyticus ATCC 17802 assessed as bacterial growth inhibition mesured after 48 hrs by broth dilution assay. In kind it is functional. Background: In broth dilution the organism is exposed to a series of concentrations in liquid medium.
Assay [12] deals with Vibrio parahaemolyticus. Description: Bactericidal activity against Vibrio parahaemolyticus ATCC 17802 assessed as bacterial growth inhibition mesured after 48 hrs by broth dilution assay. In kind it is functional.
In assay [13] the test system is Vibrio parahaemolyticus. Description: Antibacterial activity against Vibrio parahaemolyticus assessed as bacterial growth inhibition by agar dilution method. In kind it is functional. In general terms: Agar dilution tests growth on a series of plates holding different concentrations.
For assay [14], the system named is Vibrio alginolyticus. As to the kind of experiment: Antimicrobial activity against Vibrio alginolyticus assessed as bacterial growth inhibition by microplate reader assay. It is filed as functional.
In assay [15] the test system is Vibrio anguillarum. As to the kind of experiment: Antimicrobial activity against Vibrio anguillarum assessed as zone of inhibition per disc at 100 ug measured after 24 hrs by disc diffusion assay. In kind it is functional. The following applies: read-out: IZ.
Assay [16] deals with Vibrio parahaemolyticus. Description: Antimicrobial activity against Vibrio parahaemolyticus assessed as zone of inhibition. It is filed as functional.
Assay [17] relates to Vibrio parahaemolyticus. As to the kind of experiment: Antimicrobial activity against Vibrio parahaemolyticus MISR 21116 assessed as bacterial growth inhibition measured after 24 hrs by broth microdilution assay. In kind it is functional.
Assay [18] concerns Vibrio vulnificus. Description: Antimicrobial activity against Vibrio vulnificus MISR 20716 assessed as bacterial growth inhibition measured after 24 hrs by broth microdilution assay. In kind it is functional.
Assay [19] has as its system Vibrio alginolyticus. As to the kind of experiment: Antimicrobial activity against Vibrio alginolyticus MISR 30816 assessed as bacterial growth inhibition measured after 24 hrs by broth microdilution assay. It is filed as functional.
The subject of assay [20] is Vibrio parahaemolyticus. Description: Antimicrobial activity against Vibrio parahaemolyticus assessed as bacterial growth inhibition. In kind it is functional.
Assay [21] concerns Vibrio cholerae. As to the kind of experiment: Antimicrobial activity against Vibrio cholerae assessed as bacterial growth inhibition. In kind it is functional.
In assay [22] the test system is Vibrio harveyi. As to the kind of experiment: Antimicrobial activity against Vibrio harveyi BB120 assessed as bacterial growth inhibition by bioluminescence based Quorum-Sensing assay. In kind it is functional, organism-based.
Assay [23] has as its system Vibrio alginolyticus. Description: Antimicrobial activity against Vibrio alginolyticus assessed as zone of inhibition. It is filed as functional.
Assay [24] has as its system Vibrio harveyi. Description: Antimicrobial activity against Vibrio harveyi assessed as bacterial growth inhibition by microplate reader assay. In kind it is functional.
Assay [25] has as its system Vibrio anguillarum. Description: Antimicrobial activity against Vibrio anguillarum assessed as bacterial growth inhibition by microplate reader assay. It is filed as functional.
Assay [26] concerns Vibrio harveyi. As to the kind of experiment: Antimicrobial activity against Vibrio harveyi QDIO-9 assessed as bacterial growth inhibition. In kind it is functional.
The test system of assay [27] is Vibrio parahaemolyticus. As to the kind of experiment: Antimicrobial activity against Vibrio parahaemolyticus QDIO-10 assessed as bacterial growth inhibition. In kind it is functional.

pIC50: −log10 of the molar value. ≈ marks a conversion by molar mass, not a printed value.

In general, MIC refers to the lowest concentration found to suppress growth. Usually MBC stands for the smallest concentration meeting the test's criterion for killing. A word on the pIC50: it is the IC50 on a negative log10 scale, so that one unit is a factor of ten.

Take `Cc1cc(O)cc(Oc2cc(C)cc(O)c2)c1` [DIORCINOL]: the MIC in [1] came out at 40 µg/mL (≈ 174 µM).
For the compound `COC(OC)c1ccc2c(c1O)C(=O)c1ccccc1C2=O`, the MIC in [2], in assay [3] and in assay [4] was 15.6 µg/mL (≈ 52.3 µM) throughout.
For `Cc1cc2c(c(=O)[nH]1)O[C@H]([C@@H](O)CC(C)C)O2`, the minimal inhibitory concentration (MIC) in [5] stood at 1 ng/mL (≈ 0.00418 µM).
Regarding `C/C=C/CC/C=C/c1c(O)cc(CC=C(C)C)c(O)c1C=O`, the values for the MIC in assay [6] and in assay [7] were 65 µM and 65 µg/mL (≈ 216 µM), respectively.
For the compound `O=C1c2cc(O)cc(O)c2C(=O)c2c1cc(O)c(C(CO)CCO)c2O` (stereo not given), in assay [8], the MIC was 12 µg/mL.
With `COC(=O)[C@@H]1CCCN1C(=O)c1cc2c([nH]c3cc(OC)ccc32)c(C=C(C)C)n1`, in assay [9], the MIC is 32 µg/mL (≈ 78.5 µM).
Regarding `C[C@@H]1CCCCC2=C(O)C(=O)C[C@H]2C(=O)O1`, the MIC in assay [10] was determined as 2 µg/mL.
Regarding `COc1cc(C)c(Oc2cc(C)cc(O)c2)c(O)c1` [CYPERIN], the MIC in [11] came to 0.312 µM (≈ 0.0812 µg/mL). Further, the MBC in assay [12] amounted to 0.312 µM (≈ 0.0812 µg/mL).
In the case of `COC(=O)/C=C/C=C/C(=O)N[C@H]1CCCNC(=O)[C@H](C)N(C)C(=O)[C@H](C(C)C)N(C)C1=O`, in assay [13], the minimum inhibitory concentration (MIC) is 6.25 µM (≈ 2.82 µg/mL).
As for `COc1c(Cl)c(C)c(Cl)c2c1[C@H]1c3c(O)c(C)cc(O)c3C[C@@H]1C(C)(C)O2` (racemic), the MIC in assay [8] and in [14] was 20 µM throughout.
In the case of `Cc1cc(O)cc(Oc2cc(C)cc(O)c2O)c1` [CORDYOL C], in [1], the minimal inhibitory concentration (MIC) came to 40 µg/mL (≈ 162 µM).
`O=C1N[C@@H](Cc2ccccc2)C(=O)N2CCC[C@@H]12`: the zone of inhibition at 100 µg/disc in assay [15] is 25 mm.
Take `O=C1N[C@](O)(Cc2ccccc2)C(=O)N2CCC[C@H]12`: the zone of inhibition at 100 µg/disc in assay [15] came to 20 mm.
As for `COc1cc(O)c2c(=O)c(C)c(C)oc2c1OC`, the minimum inhibitory concentration (MIC) in assay [2] came out at 64 µg/mL (≈ 256 µM).
Regarding `O=C(O)c1cn(C2CC2)c2cc(N3CCNCC3)c(F)cc2c1=O` [CIPROFLOXACIN], the results for the MIC in assay [6] and in assay [7] were 20 µM and 32 µg/mL (≈ 96.6 µM), respectively. Also, the zone of inhibition at 100 µg/disc in [15] worked out at 26 mm.
As to `CC1(C)C=Cc2c(ccc3c2[N+]([O-])=C2C3CC34NC(=O)[C@@]5(CCCN5C3=O)C[C@H]4C2(C)C)O1` (stereo not given in full), the minimal inhibitory concentration (MIC) is 8 µg/mL (≈ 17.9 µM) in assay [16] (Vibrio parahaemolyticus) and 16 µg/mL (≈ 35.8 µM) in [9].
As for `C[C@@H]1CCC/C=C/[C@H](O)C[C@@H](O)C/C=C\C=C\[C@@H](O)C/C=C/C=C\C(=O)O1`, the MIC in assay [17], in assay [18] and in [19] was 64 µg/mL (≈ 170 µM) throughout.
Turning to `O=C(O)c1ccc[nH]1`, the MIC in assay [20] was determined as 25 µg/mL (≈ 225 µM); in assay [21], 50 µg/mL (≈ 450 µM).
`COC(=O)C[C@H](O)COC(=O)/C=C/CCl`: the pIC50 in [22] is 4.84.
`CC(C)C[C@@H]1NC(=O)[C@H]2C[C@H](O)CN2C1=O`: the “inhibition zone (IZ)” value is 20 mm in [23] and 12 mm in [16].
Regarding `C[C@@]1(O)C=C[C@H]2C[C@@H](CO)CC[C@@H]2[C@@]1(C)C(=O)CCO`, the MIC in [24] and in assay [25] was 4 µg/mL throughout.
In the case of `C=C[C@@]1(C)CCC2=C(C(=O)C=C3C(C)(C)CCC[C@]32O)[C@@H]1O`, the minimal inhibitory concentration (MIC) in [26] and in assay [27] was 8 µg/mL (≈ 26.5 µM) each time.
For `C[C@@]12C=C[C@@H]3C[C@H](CO)CC[C@@H]3[C@]1(C)C(=O)C=CO2`, the minimal inhibitory concentration (MIC) in assay [24] and in [25] was 4 µg/mL in each case.
Turning to `C[C@]12CC[C@H](O)[C@](C)(CO)[C@@H]1CC[C@]1(C)[C@@H]2C[C@@H](O)[C@@H]2[C@@]3(C)CC[C@H]([C@](C)(O)CO)[C@@H]3CC[C@]21C`, the minimum inhibitory concentration (MIC) in assay [9] was found to be 16 µg/mL (≈ 32.5 µM).
As for `O=C1N[C@H](Cc2ccccc2)C(=O)N2CCC[C@@H]12`, the zone of inhibition at 100 µg/disc in assay [15] was 24 mm.
As to `C[C@@H]1CCC/C=C/[C@@H]2O[C@H](C[C@@H](O)C/C=C\C=C\[C@@H](O)C/C=C/C=C\C(=O)O1)[C@H]2O`, the minimal inhibitory concentration (MIC) in assay [17], in assay [18] and in assay [19] was 64 µg/mL (≈ 153 µM) each time.
With `CCC[C@@H]1C(C)=C[C@@H]2C[C@H](C)CC[C@H]2[C@]1(C)C(=O)C1=C(O)C(=O)NC1=O`, in assay [6], the MIC was 12.5 µg/mL.
Consider `O=C(/C=C/CCl)O[C@@H]1COC(=O)C1`, for which, in assay [22], the pIC50 is 5.25.

These data come from ChEMBL document CHEMBL5360560, “Anti-Vibrio potential of natural products from marine microorganisms” (Eur J Med Chem, 2023).
